Marks after values point to notes of the source that are not given here.
Columns and labels:
[1] = test system: acetic acid-induced gastric ulcer; experiment: Protecting effect on acetic acid-induced gastric ulcer in rats; assay type: in vivo, Female Wistar rats; settings: for Area of Ulcer (x ± s): intragastric once daily for 10 consecutive days, negative control 15.71 ± 2.20; for Inhibition of Ulcer: intragastric once daily for 10 days, percentage of the control
Description: Female Wistar rats weighing 150 to 200 g were used. Following the method described in literatures ((1) Pharmacological Test Methodology, 2nd edition, Beijing, People's Health Press, 1991, 1158-1160; (2) Guidelines for preclinical studies of new drugs (western medicines) (pharmacy, pharmacology, toxicology), 1993, 88-89), a model of acetic acid-induced gastric ulcer was made. Specifically, in an area of 5 mm in diameter on the serosal side of the body of stomach in rats under anesthesia with ether, gastric ulcer was induced by treatment with 0.2 ml of glacial acetic acid for 1.5 min. On the next day following the operation, animals were randomly divided into 6 groups and started on oral administration, with distilled water as negative control and colloidal bismuth pectin as positive control. The test samples are the bismuth hyaluronate of the present invention prepared according to the Preparation Example 1 (having a glucuronate content of 27.9% and a bismuth content of 30.7%) and the starting material sodium hyaluronate (having an average molecular weight of 9.1×10^5 and a glucuronate content of 38.9%). The rats received intragastric administration once daily in a volume of about 10 ml for 10 consecutive days. Then the animals were sacrificed, and their stomachs were removed and fixed in a formaldehyde solution. After dissection, the size of the gastric ulcer was determined by measuring under microscope the maximum longitudinal diameter (d1) and the maximum transverse diameter (d2) through the center of the ulcer, and calculating the area of ulcer using the following equation: S=π×(d1/2)×(d2/2). The inhibition of ulcer was expressed as the percentage of the control.

[2] = test system: hydrochloric acid-ethanol-induced injury to gastric mucosa; experiment: Prevention and treatment of hydrochloric acid-ethanol-induced injury to gastric mucosa in rats; assay type: in vivo, Female Wistar rats; settings: for Length of injury (x ± s): sacrificed 1 h after, negative control 97.50 ± 13.28
Experimental: Female Wistar rats weighing 150 to 200 g were used. Following the method described in the literature (Methodology of pharmacological studies of Chinese medicines, Beijing, People's Health Press, 1994: 441). The rats were fasted, with access to water, for 24 h. Then the rats were randomly divided (see above) and received intragastric administration. 30 min after the administration, each rat was drenched with hydrochloric acid-ethanol (a mixture of 50 ml of absolute ethanol and 1 ml of concentrated hydrochloric acid) at a dose of 0.5 ml/100 g of body weight. 1 h after the treatment with acidified ethanol, the animals were sacrificed, and their stomachs were removed and fixed in a formaldehyde solution. The stomach was cut open along the greater curvature and washed for examination of the injury to the gastric mucous membrane.

[3] = 150 mg/kg intragastric 30 min before hydrochloric acid-ethanol
[4] = 50 mg/kg intragastric 30 min before hydrochloric acid-ethanol
[5] = 100 mg/kg intragastric 30 min before hydrochloric acid-ethanol

Substance	Area of Ulcer (x ± s) ([1]; 150 mg/kg)	Inhibition of Ulcer ([1]; 150 mg/kg) [%]	Inhibition of Ulcer [2, 3] [%]	Length of injury (x ± s) [2, 3]	Area of Ulcer (x ± s) ([1]; 50 mg/kg)	Inhibition of Ulcer ([1]; 50 mg/kg) [%]	Area of Ulcer (x ± s) ([1]; 100 mg/kg)	Inhibition of Ulcer ([1]; 100 mg/kg) [%]	inhibition of acetic acid-induced gastric ulcer (in words) ([1]; rats, summary of Table 2)	inhibition of acetic acid-induced gastric ulcer compared with colloidal bismuth pectin (in words) ([1]; rats, versus positive control)	Inhibition of Ulcer [2, 4] [%]	Length of injury (x ± s) [2, 4]	Inhibition of Ulcer [2, 5] [%]	Length of injury (x ± s) [2, 5]	inhibition of acidified ethanol-induced gastric ulcer (in words) ([2]; rats, summary of Table 3)	inhibition of acidified ethanol-induced gastric ulcer compared with colloidal bismuth pectin (in words) ([2]; rats, versus positive control)
colloidal bismuth pectin [reference compound]	7.15 ± 2.03* mm^2	54.48	55.24	43.64 ± 9.55 mm												
bismuth hyaluronate	4.05 ± 1.62***^ΔΔ mm^2	74.22	92.70	7.11 ± 2.13***^ΔΔΔ mm	5.92 ± 2.27** mm^2	62.32	4.98 ± 1.15***^Δ mm^2	68.30	statistically significant inhibition	significantly higher than the positive control	72.78	26.54 ± 7.88***^ΔΔ mm	92.93	6.89 ± 1.86***^ΔΔΔ mm	statistically significant inhibition	significantly higher than the positive control
sodium hyaluronate [reference compound]	10.25 ± 2.29 mm^2	34.75	48.16	50.54 ± 11.98 mm												

— patent publication US8093374B2, “Bismuth hyaluronate, the preparation method and the use thereof” (priority 2005, dated 2012)
